# Experimental data as given in article PMC7215089, “Identification of a Conserved Prophenoloxidase Activation Pathway in Cotton Bollworm Helicoverpa armigera” (Frontiers in Immunology, 2020).
# Target: T1, PPO / PO (PPO1-PPO2 heterodimer) (Helicoverpa armigera, UniProt A0A290U614+Q2VIY6)
# T1 sequence (A0A290U614 1-684): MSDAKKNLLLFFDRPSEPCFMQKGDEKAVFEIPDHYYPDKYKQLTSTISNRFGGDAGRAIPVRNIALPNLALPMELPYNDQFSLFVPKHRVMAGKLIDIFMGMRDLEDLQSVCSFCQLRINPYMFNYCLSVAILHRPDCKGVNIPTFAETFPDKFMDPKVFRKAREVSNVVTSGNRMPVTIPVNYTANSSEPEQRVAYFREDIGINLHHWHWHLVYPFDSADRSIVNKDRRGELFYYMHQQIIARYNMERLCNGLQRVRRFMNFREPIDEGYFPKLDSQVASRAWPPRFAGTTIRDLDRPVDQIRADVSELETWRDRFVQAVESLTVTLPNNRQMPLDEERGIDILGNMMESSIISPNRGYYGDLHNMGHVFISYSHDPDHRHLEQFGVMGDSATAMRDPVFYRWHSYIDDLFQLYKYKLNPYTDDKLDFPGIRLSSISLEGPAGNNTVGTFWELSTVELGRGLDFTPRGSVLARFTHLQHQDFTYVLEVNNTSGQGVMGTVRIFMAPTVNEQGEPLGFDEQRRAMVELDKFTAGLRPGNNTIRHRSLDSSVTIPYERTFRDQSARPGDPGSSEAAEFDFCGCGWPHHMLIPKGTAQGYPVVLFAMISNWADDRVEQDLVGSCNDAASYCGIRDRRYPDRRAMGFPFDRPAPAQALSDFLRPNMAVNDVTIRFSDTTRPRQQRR
# T1 sequence (Q2VIY6 1-698): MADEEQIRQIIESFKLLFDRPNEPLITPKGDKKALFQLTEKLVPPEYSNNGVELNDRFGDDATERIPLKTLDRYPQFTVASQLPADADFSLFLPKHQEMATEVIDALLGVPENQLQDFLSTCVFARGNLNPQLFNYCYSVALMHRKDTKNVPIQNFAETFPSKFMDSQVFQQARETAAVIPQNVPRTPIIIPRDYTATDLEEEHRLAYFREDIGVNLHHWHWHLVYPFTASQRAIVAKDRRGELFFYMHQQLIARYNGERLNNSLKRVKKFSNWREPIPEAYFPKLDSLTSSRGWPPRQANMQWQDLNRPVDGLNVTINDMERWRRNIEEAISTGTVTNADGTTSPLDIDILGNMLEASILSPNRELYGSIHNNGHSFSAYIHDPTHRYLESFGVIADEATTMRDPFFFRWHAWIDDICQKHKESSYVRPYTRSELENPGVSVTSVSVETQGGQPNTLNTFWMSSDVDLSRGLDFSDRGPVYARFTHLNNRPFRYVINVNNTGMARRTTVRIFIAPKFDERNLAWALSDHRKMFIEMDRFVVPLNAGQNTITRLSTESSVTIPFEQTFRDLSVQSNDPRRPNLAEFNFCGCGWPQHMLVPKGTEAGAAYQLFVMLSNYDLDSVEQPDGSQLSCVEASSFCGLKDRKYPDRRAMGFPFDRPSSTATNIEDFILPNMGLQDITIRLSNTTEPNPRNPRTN
# Assay: phenoloxidase assay, dopamine chrome formation
# Type: biochemical
# Settings: PPO activated by CPC
smiles,measurement,value
NCCc1ccc(O)c(O)c1 [dopamine],"phenoloxidase assay, dopamine chrome formation",production of dopamine chrome (or dopachrome) from dopamine (or dopa)
